Source: patent US10239873B2, “7-azaindole or 4,7-diazaindole derivatives as IKKϵ epsilon and TBK1 inhibitor and pharmaceutical composition comprising same” (GREEN CROSS CORPORATION, priority 2015, dated 2019)

Legend:
TBK1 = target: T1, TBK1 (Homo sapiens, UniProt Q9UHD2); assay: ADP-Glo Kinase Assay, inhibition activity on TBK1; type: biochemical
T1 construct: purchased Promega (Invitrogen is also named in the same bracket) V4158; PR8031B; V3991 (not assigned to the two kinases)
T1 sequence (Q9UHD2 1-729): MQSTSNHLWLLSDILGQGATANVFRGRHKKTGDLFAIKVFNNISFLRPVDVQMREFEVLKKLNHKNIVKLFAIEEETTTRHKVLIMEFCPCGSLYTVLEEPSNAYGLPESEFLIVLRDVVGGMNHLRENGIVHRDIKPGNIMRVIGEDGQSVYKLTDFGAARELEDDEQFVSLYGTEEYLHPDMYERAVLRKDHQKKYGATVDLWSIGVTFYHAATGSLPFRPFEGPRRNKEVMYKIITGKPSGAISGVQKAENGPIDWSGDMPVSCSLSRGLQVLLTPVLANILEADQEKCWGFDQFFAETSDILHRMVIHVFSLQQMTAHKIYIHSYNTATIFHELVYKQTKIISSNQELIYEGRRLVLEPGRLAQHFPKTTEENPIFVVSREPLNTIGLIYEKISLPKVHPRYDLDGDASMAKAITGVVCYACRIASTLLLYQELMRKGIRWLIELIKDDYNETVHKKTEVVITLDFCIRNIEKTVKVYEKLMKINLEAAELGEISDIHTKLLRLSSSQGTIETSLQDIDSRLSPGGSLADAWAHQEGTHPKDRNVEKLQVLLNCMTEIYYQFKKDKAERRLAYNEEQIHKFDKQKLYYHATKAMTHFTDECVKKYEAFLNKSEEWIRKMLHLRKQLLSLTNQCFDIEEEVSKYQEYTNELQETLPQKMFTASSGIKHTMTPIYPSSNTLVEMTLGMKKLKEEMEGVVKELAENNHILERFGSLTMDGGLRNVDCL
In short: (§1)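 Kinase activity measured with the ADP-Glo luminescent ADP-detection kit per manufacturer's protocol, using IKKε or TBK1 kinase enzyme systems. Reaction buffer: 40 mM Tris (pH 7.5), 20 mM MgCl2, 0.1 mg/mL BSA; luminescence read on a luminometer.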

IKKε = target: T2, IKKε (Homo sapiens, UniProt Q14164); assay: ADP-Glo Kinase Assay, inhibition activity on IKKε; type: biochemical
T2 construct: purchased Promega and/or Invitrogen V4158; PR8031B; V3991 (not assigned to the two kinases)
T2 sequence (Q14164 1-716): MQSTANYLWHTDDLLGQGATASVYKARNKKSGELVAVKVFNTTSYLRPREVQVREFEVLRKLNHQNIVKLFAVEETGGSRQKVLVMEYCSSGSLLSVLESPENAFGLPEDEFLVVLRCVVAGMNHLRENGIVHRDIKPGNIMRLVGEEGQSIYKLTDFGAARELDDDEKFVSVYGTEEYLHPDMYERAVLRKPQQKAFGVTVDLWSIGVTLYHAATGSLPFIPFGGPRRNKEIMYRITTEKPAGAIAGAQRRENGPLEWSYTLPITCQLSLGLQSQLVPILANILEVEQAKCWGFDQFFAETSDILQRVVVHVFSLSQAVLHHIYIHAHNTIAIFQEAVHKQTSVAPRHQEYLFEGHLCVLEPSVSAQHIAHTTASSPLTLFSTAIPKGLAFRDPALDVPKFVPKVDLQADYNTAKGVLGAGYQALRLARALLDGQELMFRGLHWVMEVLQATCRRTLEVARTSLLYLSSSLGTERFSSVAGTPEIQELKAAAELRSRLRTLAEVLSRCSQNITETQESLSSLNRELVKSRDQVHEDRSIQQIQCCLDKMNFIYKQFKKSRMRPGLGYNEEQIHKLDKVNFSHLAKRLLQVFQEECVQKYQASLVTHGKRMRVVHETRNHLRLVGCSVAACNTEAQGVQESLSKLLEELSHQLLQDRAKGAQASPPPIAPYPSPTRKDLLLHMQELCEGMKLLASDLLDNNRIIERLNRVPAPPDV
In short: as §1

`CCC(CC)NC(=O)N1CCC(c2c[nH]c3ncc(-c4ccc(CN5CCOCC5)s4)cc23)=CC1C` (stereo not shown) [Example 92, 6-Methyl-4-(5-(5-(morpholinomethyl)thiophen-2-yl)-1H-pyrrolo[2,3-b]pyridin-3-yl)-N-(pentan-3-yl)-3,6-dihydropyridine-1(2H)-carboxamide] gave an IC50 (TBK1) of 35 nM and an IC50 (IKKε) of 130 nM.

`CC1C=C(c2c[nH]c3ncc(-c4ccc(CN5CCN(C(=O)OC(C)(C)C)CC5)s4)cc23)CCN1C(=O)NC1CC1` (stereo not shown) [Example 93, tert-Butyl 4-((5-(3-(1-(cyclopropylcarbamoyl)-6-methyl-1,2,3,6-tetrahydropyridin-4-yl)-1H-pyrrolo[2,3-b]pyridin-5-yl)thiophen-2-yl)methyl)piperazine-1-carboxylate] was tested, and the IC50 (TBK1) was 18 nM and the IC50 (IKKε) was 48 nM.

With `CC1C=C(c2c[nH]c3ncc(-c4ccc(C(=O)N5CCN(C)CC5)cc4)cc23)CCN1C(=O)NC1CC1` (stereo not shown) [Example 94, N-cyclopropyl-2-methyl-4-(5-(4-(4-methylpiperazine-1-carbonyl)phenyl)-1H-pyrrolo[2,3-b]pyridin-3-yl)-5,6-dihydropyridine-1(2H)-carboxamide] the IC50 (TBK1) was 3.9 nM and the IC50 (IKKε) was 10 nM.

`CC1C=C(c2c[nH]c3ncc(-c4ccc(CN5CCN(C)CC5)cc4)cc23)CCN1C(=O)NC1CC1` (stereo not shown) [Example 95, N-cyclopropyl-2-methyl-4-(5-(4-((4-methylpiperazin-1-yl)methyl)phenyl)-1H-pyrrolo[2,3-b]pyridin-3-yl)-5,6-dihydropyridine-1(2H)-carboxamide] gave an IC50 (TBK1) of 7.4 nM and an IC50 (IKKε) of 14 nM.

In the case of `CC1C=C(c2c[nH]c3ncc(-c4ccc(CN5CCN(C)CC5)s4)cc23)CCN1C(=O)NC1CC1` (stereo not shown) [Example 96, N-cyclopropyl-2-methyl-4-(5-(5-((4-methylpiperazin-1-yl)methyl)thiophen-2-yl)-1H-pyrrolo[2,3-b]pyridin-3-yl)-5,6-dihydropyridine-1(2H)-carboxamide], the IC50 (TBK1) is reported as 3.1 nM and the IC50 (IKKε) is reported as 6.5 nM.

`CC1C=C(c2c[nH]c3ncc(-c4ccc(CN5CCOCC5)s4)cc23)CCN1C(=O)NC1CC1` (stereo not shown) [Example 97, N-cyclopropyl-2-methyl-4-(5-(5-(morpholinomethyl)thiophen-2-yl)-1H-pyrrolo[2,3-b]pyridin-3-yl)-5,6-dihydropyridine-1(2H)-carboxamide] gave an IC50 (TBK1) of 1.7 nM and an IC50 (IKKε) of 2.5 nM.

`CC1C=C(c2c[nH]c3ncc(-c4ccc(C(=O)N5CCN(C)CC5)cc4)cc23)CCN1C(=O)NC1CCC1` (stereo not shown) [Example 98, N-cyclobutyl-2-methyl-4-(5-(4-(4-methylpiperazine-1-carbonyl)phenyl)-1H-pyrrolo[2,3-b]pyridin-3-yl)-5,6-dihydropyridine-1(2H)-carboxamide] gave an IC50 (TBK1) of 15 nM and an IC50 (IKKε) of 22 nM.

`CC1C=C(c2c[nH]c3ncc(-c4ccc(CN5CCN(C)CC5)cc4)cc23)CCN1C(=O)NC1CCC1` (stereo not shown) [Example 99, N-cyclobutyl-2-methyl-4-(5-(4-((4-methylpiperazin-1-yl)methyl)phenyl)-1H-pyrrolo[2,3-b]pyridin-3-yl)-5,6-dihydropyridine-1(2H)-carboxamide] gave an IC50 (TBK1) of 28 nM and an IC50 (IKKε) of 64 nM.

`CC1C=C(c2c[nH]c3ncc(-c4ccc(CN5CCN(C)CC5)s4)cc23)CCN1C(=O)NC1CCC1` (stereo not shown) [Example 100, N-cyclobutyl-2-methyl-4-(5-(5-((4-methylpiperazin-1-yl)methyl)thiophen-2-yl)-1H-pyrrolo[2,3-b]pyridin-3-yl)-5,6-dihydropyridine-1(2H)-carboxamide] gave an IC50 (TBK1) of 5.6 nM and an IC50 (IKKε) of 35 nM.

Compound `CC1C=C(c2c[nH]c3ncc(-c4ccc(CN5CCOCC5)s4)cc23)CCN1C(=O)NC1CCC1` (stereo not shown) [Example 101, N-cyclobutyl-2-methyl-4-(5-(5-(morpholinomethyl)thiophen-2-yl)-1H-pyrrolo[2,3-b]pyridin-3-yl)-5,6-dihydropyridine-1(2H)-carboxamide] has an IC50 (TBK1) of 10 nM and an IC50 (IKKε) of 29 nM.

In the case of `CC1C=C(c2c[nH]c3ncc(-c4ccc(CN5CCN(C)CC5)s4)cc23)CCN1C(=O)NC1CCCC1` (stereo not shown) [Example 102, N-cyclopentyl-2-methyl-4-(5-(5-((4-methylpiperazin-1-yl)methyl)thiophen-2-yl)-1H-pyrrolo[2,3-b]pyridin-3-yl)-5,6-dihydropyridine-1(2H)-carboxamide], the IC50 (TBK1) is reported as 4.4 nM and the IC50 (IKKε) is reported as 13 nM.

With `CC1CC(c2c[nH]c3ncc(-c4ccc(CN5CCN(C)CC5)s4)cc23)=CCN1C(=O)NC1CCCC1` (stereo not shown) [Example 103, N-cyclopentyl-6-methyl-4-(5-(5-((4-methylpiperazin-1-yl)methyl)thiophen-2-yl)-1H-pyrrolo[2,3-b]pyridin-3-yl)-5,6-dihydropyridine-1(2H)-carboxamide] the IC50 (TBK1) was 58 nM and the IC50 (IKKε) was 150 nM.

With `CC1CC(c2c[nH]c3ncc(-c4ccc(CN5CCOCC5)s4)cc23)=CCN1C(=O)NC1CCCC1` (stereo not shown) [Example 104, N-cyclopentyl-6-methyl-4-(5-(5-(morpholinomethyl)thiophen-2-yl)-1H-pyrrolo[2,3-b]pyridin-3-yl)-5,6-dihydropyridine-1(2H)-carboxamide] the IC50 (TBK1) was 110 nM and the IC50 (IKKε) was 190 nM.

`CC1C=C(c2c[nH]c3ncc(-c4ccc(S(C)(=O)=O)cc4)cc23)CCN1C(=O)NC1CCCC1` (stereo not shown) [Example 105, N-cyclopentyl-2-methyl-4-(5-(4-(methylsulfonyl)phenyl)-1H-pyrrolo[2,3-b]pyridin-3-yl)-5,6-dihydropyridine-1(2H)-carboxamide] showed an IC50 (TBK1) of 25 nM and an IC50 (IKKε) of 22 nM.

With `CC1C=C(c2c[nH]c3ncc(-c4ccc(CN5CCOCC5)s4)cc23)CCN1C(=O)NC1CCCC1` (stereo not shown) [Example 106, N-cyclopentyl-2-methyl-4-(5-(5-(morpholinomethyl)thiophen-2-yl)-1H-pyrrolo[2,3-b]pyridin-3-yl)-5,6-dihydropyridine-1(2H)-carboxamide] the IC50 (TBK1) was 3.1 nM and the IC50 (IKKε) was 4.7 nM.

With `COc1ccc(-c2cnc3[nH]cc(C4=CC(C)N(C(=O)NC5CCCC5)CC4)c3c2)cc1OC` (stereo not shown) [Example 108, N-cyclopentyl-4-(5-(3,4-dimethoxyphenyl)-1H-pyrrolo[2,3-b]pyridin-3-yl)-2-methyl-5,6-dihydropyridine-1(2H)-carboxamide] the IC50 (TBK1) was 23 nM and the IC50 (IKKε) was 29 nM.

In the case of `CCC1C=C(c2c[nH]c3ncc(-c4ccc(CN5CCOCC5)s4)cc23)CCN1C(=O)NC(C)C` (stereo not shown) [Example 109, 2-Ethyl-N-isopropyl-4-(5-(5-(morpholinomethyl)thiophen-2-yl)-1H-pyrrolo[2,3-b]pyridin-3-yl)-5,6-dihydropyridine-1(2H)-carboxamide], the IC50 (TBK1) is reported as 220 nM and the IC50 (IKKε) is reported as 390 nM.

`CCC1CC(c2c[nH]c3ncc(-c4ccc(CN5CCOCC5)s4)cc23)=CCN1C(=O)NC(C)C` (stereo not shown) [Example 110, 6-Ethyl-N-isopropyl-4-(5-(5-(morpholinomethyl)thiophen-2-yl)-1H-pyrrolo[2,3-b]pyridin-3-yl)-5,6-dihydropyridine-1(2H)-carboxamide] showed an IC50 (TBK1) of 31 nM and an IC50 (IKKε) of 43 nM.

`CCC1C=C(c2c[nH]c3ncc(-c4ccc(CN5CCN(C)CC5)s4)cc23)CCN1C(=O)NC(C)C` (stereo not shown) [Example 111, 2-Ethyl-N-isopropyl-4-(5-(5-((4-methylpiperazin-1-yl)methyl)thiophen-2-yl)-1H-pyrrolo[2,3-b]pyridin-3-yl)-5,6-dihydropyridine-1(2H)-carboxamide] gave an IC50 (TBK1) of 18 nM and an IC50 (IKKε) of 77 nM.

`CCC1C=C(c2c[nH]c3ncc(-c4ccc(CN5CCOCC5)cc4)cc23)CCN1C(=O)NC(C)C` (stereo not shown) [Example 112, 6-Ethyl-N-isopropyl-4-(5-(4-(morpholinomethyl)phenyl)-1H-pyrrolo[2,3-b]pyridin-3-yl)-3,6-dihydropyridine-1(2H)-carboxamide] showed an IC50 (TBK1) of 56 nM and an IC50 (IKKε) of 62 nM.
